Data from patent US20210122771A1, “NEW MOLECULAR TWEEZERS AGAINST NEUROLOGICAL DISORDERS AND VIRAL INFECTIONS” (The Regents of the University of California, priority 2018, published 2021).

Experiments:
Full 24-h PK profile = type: in vivo, mice; design: Brain AUC: unit not given here
Procedure: Based on the 2-time-point screen results, a full 24-h PK profile has been obtained for compounds 13 and 14. In these experiments, the blood and brain levels were measured at 7 time points—0.3, 0.6, 1, 2, 4, 8, and 24 h. Data for 1 are given for reference.

[1] = PK screening in mice, three routes, two time points; conditions: for Blood Concentration, 40 min / Brain Concentration, 40 min / Blood Concentration, 4 h / Brain Concentration, 4 h: analyte: administered compound for 13 and 14, compound 1 in all other cases
Procedure: Each compound was administered to the mice at 2 mg/kg intravenously (I.V.), 2 mg/kg subcutaneously (S.C.), or 10 mg/kg orally (P.O.).

[2] = Incubation with mouse plasma, LC-MS/MS; conditions: incubation 1 h, LC-MS/MS every 15 min
[3] = Incubation with mouse liver microsomes, LC-MS/MS; type: in vitro ADME; conditions: incubation 1 h, LC-MS/MS every 15 min
[4] = Incubation with simulated gastric fluid, LC-MS/MS; conditions: incubation 1 h, LC-MS/MS every 15 min
RGD = type: binding; conditions: fluorometric titration in aqueous buffer at neutral pH; read-out: Dissociation constant Kd, RGD
KAA = type: binding; conditions: fluorometric titration in aqueous buffer at neutral pH; read-out: Dissociation constant Kd, KAA
Aβ42-induced toxicity = test: Inhibition of Aβ42 toxicity in differentiated PC-12 cells (MTT/LDH); type: cell-based, rat; conditions: 10 μM Aβ42, differentiated PC-12 cells
Procedure: (§1) The highest concentration tested was 100 μM. Non-toxic compounds then were tested for their ability to inhibit the toxicity of 10 μM Aβ42 in the same assay. The parent compound 1 was used as a control in both cases.

[5] = tested on: differentiated rat pheochromocytoma (PC-12) cells; test: Self-toxicity in differentiated PC-12 cells (MTT and/or LDH); conditions: MTT and/or LDH assays, highest concentration tested 100 μM
Procedure: as §1

[6] = I.V., 24-h profile, 7 time points
[7] = P.O., 24-h profile, 7 time points
[8] = S.C., 24-h profile, 7 time points

COc1c2c(c(OP(=O)([O-])O)c3c1C1CC3c3cc4c(cc31)C1CC4c3ccccc31)C1CC2c2cc3c(cc21)C1CC3c2ccccc21.[Na+] [Compound 14]
BBB penetration relative to compound 1 (Full 24-h PK profile; mouse, in vivo): improved | Blood AUC (Full 24-h PK profile; mouse, in vivo, iv): 1880 | Blood T1/2 (Full 24-h PK profile; mouse, in vivo, iv): 1.7 h | Brain AUC (Full 24-h PK profile; mouse, in vivo, iv): 73.2 | Brain T1/2 (Full 24-h PK profile; mouse, in vivo, iv): 0.8 h | LogBB (Full 24-h PK profile; mouse, in vivo, iv): −1.41 | Blood AUC (Full 24-h PK profile; mouse, in vivo, po): 16.1 | Blood Bioavailability (Full 24-h PK profile; mouse, in vivo, po): 0.9% | Blood T1/2 (Full 24-h PK profile; mouse, in vivo, po): 4.4 h | Brain AUC (Full 24-h PK profile; mouse, in vivo, po): 13.7 | Brain T1/2 (Full 24-h PK profile; mouse, in vivo, po): 6.5 h | LogBB (Full 24-h PK profile; mouse, in vivo, po): −0.07 | oral bioavailability relative to compound 1 (Full 24-h PK profile; mouse, in vivo, po): improved | Blood AUC (Full 24-h PK profile; mouse, in vivo, sc): 1147 | Blood Bioavailability (Full 24-h PK profile; mouse, in vivo, sc): 61.0% | Blood T1/2 (Full 24-h PK profile; mouse, in vivo, sc): 14.8 h | Brain AUC (Full 24-h PK profile; mouse, in vivo, sc): 4.4 | LogBB (Full 24-h PK profile; mouse, in vivo, sc): 0 | Bioavailability, 40 min ([1]; mouse, in vivo, 2 mg/kg): 281.1% | Bioavailability, 4 h ([1]; mouse, in vivo, 2 mg/kg): 291.2% | Bioavailability, 40 min ([1]; mouse, in vivo, 10 mg/kg): 3.9% | Bioavailability, 4 h ([1]; mouse, in vivo, 10 mg/kg): 20.3% | BBB penetration when administered I.V. (compared to 1) ([1]; mouse, in vivo, iv): substantially increased | BBB penetration, 40 min ([1]; mouse, in vivo, iv, 2 mg/kg): 10.0% | BBB penetration, 4 h ([1]; mouse, in vivo, iv, 2 mg/kg): 65.9% | BBB penetration, 40 mm ([1]; mouse, in vivo, po, 10 mg/kg): 6.1% | BBB penetration, 4 h ([1]; mouse, in vivo, po, 10 mg/kg): 2.6% | BBB penetration, 40 min ([1]; mouse, in vivo, sc, 2 mg/kg): 0.1% | BBB penetration, 4 h ([1]; mouse, in vivo, sc, 2 mg/kg): 0.4%

O=C(O)Cc1ccccc1Nc1c(Cl)cccc1Cl [diclofenac]
hydrolysis in mouse plasma [2]: hydrolyzed quantitatively | hydrolysis in mouse liver microsomes [3]: hydrolyzed quantitatively | hydrolysis in simulated gastric fluid [4]: hydrolyzed quantitatively

C#CCCOP(=O)(O)Oc1c2c(c(OP(=O)(O)O)c3c1C1CC3c3cc4c(cc31)C1CC4c3ccccc31)C1CC2c2cc3c(cc21)C1CC3c2ccccc21 [Compound 12]
Kd (RGD): 60 µM | Kd (KAA): 20 µM

O=P([O-])(O)Oc1c2c(c(O)c3c1C1CC3c3cc4c(cc31)C1CC4c3ccccc31)C1CC2c2cc3c(cc21)C1CC3c2ccccc21.[Na+] [Compound 13]
protective effect against Aβ42-induced toxicity compared to 1 (Aβ42-induced toxicity): higher protective effect | IC50 (Aβ42-induced toxicity; LDH assay, read-out: Inhibition of Aβ42 toxicity, IC50 (LDH)): 16 µM | LogBB (Full 24-h PK profile; I.V., 24-h profile): −2.06 | Blood T1/2 (Full 24-h PK profile; [6]): 1.2 h | Brain AUC (Full 24-h PK profile; [6]): 3.71 | Brain T1/2 (Full 24-h PK profile; [6]): 1.5 h | Blood AUC (Full 24-h PK profile; I.V., 24-h profile, 7 time points, in ng·h/mL): 423 | Blood Bioavailability (Full 24-h PK profile; P.O., 24-h profile): 21.6% | LogBB (Full 24-h PK profile; P.O., 24-h profile): −1.84 | Blood T1/2 (Full 24-h PK profile; [7]): 16 h | Brain AUC (Full 24-h PK profile; [7]): 1.33 | Brain T1/2 (Full 24-h PK profile; [7]): 3.1 h | Blood AUC (Full 24-h PK profile; P.O., 24-h profile, 7 time points, in ng·h/mL): 91.2 | Blood Bioavailability (Full 24-h PK profile; S.C., 24-h profile): 246.7% | LogBB (Full 24-h PK profile; S.C., 24-h profile): 3.31 | Blood T1/2 (Full 24-h PK profile; [8]): 11.1 h | Brain T1/2 (Full 24-h PK profile; [8]): 1.1 h | Blood AUC (Full 24-h PK profile; S.C., 24-h profile, 7 time points, in ng·h/mL): 1043 | BBB penetration relative to compound 1 (Full 24-h PK profile; full 24-h PK profile): improved | Blood Concentration, 40 min ([1]; mice, 2 mg/kg I.V., 40 min): 55 ng/mL | Brain Concentration, 40 min ([1]; mice, 2 mg/kg I.V., 40 min): 3.58 ng/g | BBB penetration, 40 min ([1]; mice, 2 mg/kg I.V., 40 min, percent ratio between brain and blood concentration): 6.5% | Blood Concentration, 4 h ([1]; mice, 2 mg/kg I.V., 4 h): 53 ng/mL | Brain Concentration, 4 h ([1]; mice, 2 mg/kg I.V., 4 h): 1.28 ng/g | BBB penetration, 4 h ([1]; mice, 2 mg/kg I.V., 4 h, percent ratio between brain and blood concentration): 2.4% | Blood Concentration, 40 min ([1]; mice, 2 mg/kg S.C., 40 min): 98 ng/mL | Brain Concentration, 40 min ([1]; mice, 2 mg/kg S.C., 40 min): 1.19 ng/g | BBB penetration, 40 min ([1]; mice, 2 mg/kg S.C., 40 min, percent ratio between brain and blood concentration): 1.2% | Bioavailability, 40 min ([1]; mice, 2 mg/kg S.C., 40 min, percent ratio of the I.V. blood concentration): 178.2% | Blood Concentration, 4 h ([1]; mice, 2 mg/kg S.C., 4 h): 50 ng/mL | Brain Concentration, 4 h ([1]; mice, 2 mg/kg S.C., 4 h): 1.69 ng/g | BBB penetration, 4 h ([1]; mice, 2 mg/kg S.C., 4 h, percent ratio between brain and blood concentration): 3.4% | Bioavailability, 4 h ([1]; mice, 2 mg/kg S.C., 4 h, percent ratio of the I.V. blood concentration): 94.3% | Blood Concentration, 40 min ([1]; mice, 10 mg/kg P.O., 40 min): 0.0 ng/mL | Brain Concentration, 40 min ([1]; mice, 10 mg/kg P.O., 40 min): 1.79 ng/g | BBB penetration, 40 mm ([1]; mice, 10 mg/kg P.O., 40 min, percent ratio between brain and blood concentration): 0.0% | Bioavailability, 40 min ([1]; mice, 10 mg/kg P.O., 40 min, percent ratio of the I.V. blood concentration): 0.0% | Blood Concentration, 4 h ([1]; mice, 10 mg/kg P.O., 4 h): 0.3 ng/mL | Brain Concentration, 4 h ([1]; mice, 10 mg/kg P.O., 4 h): 0.26 ng/g | BBB penetration, 4 h ([1]; mice, 10 mg/kg P.O., 4 h, percent ratio between brain and blood concentration): 100% | Bioavailability, 4 h ([1]; mice, 10 mg/kg P.O., 4 h, percent ratio of the I.V. blood concentration): 0.5% | Self-toxicity [5]: Non-toxic
